Drawing on ChEMBL document CHEMBL5696442, “Discovery of type II inhibitors of TGFβ-activated kinase 1 (TAK1) and mitogen-activated protein kinase kinase kinase kinase 2 (MAP4K2)” (J Med Chem, 2015), this text covers residual activity and inhibition for three compounds.

Experiment [1] deals with Dual specificity mitogen-activated protein kinase kinase 2 (Homo sapiens) (UniProt P36507). The experiment in a line: Inhibition of MEK2 (unknown origin) at 1 uM by Ambit Kinomescan binding assay relative to control; values are per cent of control.
Chain of Dual specificity mitogen-activated protein kinase kinase 2 (Homo sapiens) (P36507 whole entry): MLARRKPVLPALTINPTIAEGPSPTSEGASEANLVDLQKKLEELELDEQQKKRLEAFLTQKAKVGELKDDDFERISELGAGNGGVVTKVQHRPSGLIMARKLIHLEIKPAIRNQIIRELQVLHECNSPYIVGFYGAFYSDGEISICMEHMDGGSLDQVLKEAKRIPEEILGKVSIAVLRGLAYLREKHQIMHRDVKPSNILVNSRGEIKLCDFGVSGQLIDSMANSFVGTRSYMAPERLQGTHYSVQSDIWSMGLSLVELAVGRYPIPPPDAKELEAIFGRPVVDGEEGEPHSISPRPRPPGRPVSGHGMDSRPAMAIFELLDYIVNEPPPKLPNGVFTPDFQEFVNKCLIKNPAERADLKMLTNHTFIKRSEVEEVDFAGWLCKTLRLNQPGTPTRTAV
Experiment [2] addresses Glycogen synthase kinase-3 beta (Homo sapiens) (UniProt P49841). The experiment in a line: Inhibition of GSK3B (unknown origin) at 1 uM by Ambit Kinomescan binding assay relative to control; values are per cent of control.
For experiment [3], the target named is T1, Serine/threonine-protein kinase D3 (Homo sapiens) (UniProt O94806).
T1 sequence (whole entry): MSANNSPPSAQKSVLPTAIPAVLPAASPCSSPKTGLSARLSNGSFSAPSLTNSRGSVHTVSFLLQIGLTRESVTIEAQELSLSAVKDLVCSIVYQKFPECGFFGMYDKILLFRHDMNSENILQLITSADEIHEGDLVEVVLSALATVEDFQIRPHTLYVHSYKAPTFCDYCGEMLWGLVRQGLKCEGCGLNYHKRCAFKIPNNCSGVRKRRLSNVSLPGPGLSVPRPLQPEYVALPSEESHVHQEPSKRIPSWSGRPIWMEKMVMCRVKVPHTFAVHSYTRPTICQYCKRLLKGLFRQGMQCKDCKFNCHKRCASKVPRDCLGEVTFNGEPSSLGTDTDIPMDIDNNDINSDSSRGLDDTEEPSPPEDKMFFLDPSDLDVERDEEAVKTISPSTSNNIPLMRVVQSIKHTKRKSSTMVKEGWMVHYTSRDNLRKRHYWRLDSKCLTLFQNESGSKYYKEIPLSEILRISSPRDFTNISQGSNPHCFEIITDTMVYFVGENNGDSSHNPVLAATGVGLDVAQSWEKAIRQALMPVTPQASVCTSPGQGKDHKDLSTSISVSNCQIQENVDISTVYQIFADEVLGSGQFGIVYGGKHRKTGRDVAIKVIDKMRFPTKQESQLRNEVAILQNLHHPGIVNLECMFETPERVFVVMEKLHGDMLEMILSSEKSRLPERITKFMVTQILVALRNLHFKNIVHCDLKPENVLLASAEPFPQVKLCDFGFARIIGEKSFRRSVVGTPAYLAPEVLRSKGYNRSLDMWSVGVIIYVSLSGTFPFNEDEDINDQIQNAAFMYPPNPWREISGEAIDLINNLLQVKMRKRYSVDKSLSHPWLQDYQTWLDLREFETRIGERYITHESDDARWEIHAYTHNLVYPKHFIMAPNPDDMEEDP
The experiment in a line: Inhibition of PKD3 Lys2 labeling site in human A-375 cells at 5 uM by KiNativ Profiling analysis relative to control. It is filed as cell-based.

Experiment [4] addresses Angiopoietin-1 receptor (Homo sapiens) (UniProt Q02763). The experiment in a line: Inhibition of TIE2 (unknown origin) at 10 uM by Ambit Kinomescan binding assay relative to control; values are per cent of control.
In experiment [5] the target is Maternal embryonic leucine zipper kinase (Homo sapiens) (UniProt Q14680). The experiment in a line: Inhibition of MELK (unknown origin) at 10 uM by Ambit Kinomescan binding assay.
Chain of Maternal embryonic leucine zipper kinase (Homo sapiens) (Q14680 whole entry, looked up): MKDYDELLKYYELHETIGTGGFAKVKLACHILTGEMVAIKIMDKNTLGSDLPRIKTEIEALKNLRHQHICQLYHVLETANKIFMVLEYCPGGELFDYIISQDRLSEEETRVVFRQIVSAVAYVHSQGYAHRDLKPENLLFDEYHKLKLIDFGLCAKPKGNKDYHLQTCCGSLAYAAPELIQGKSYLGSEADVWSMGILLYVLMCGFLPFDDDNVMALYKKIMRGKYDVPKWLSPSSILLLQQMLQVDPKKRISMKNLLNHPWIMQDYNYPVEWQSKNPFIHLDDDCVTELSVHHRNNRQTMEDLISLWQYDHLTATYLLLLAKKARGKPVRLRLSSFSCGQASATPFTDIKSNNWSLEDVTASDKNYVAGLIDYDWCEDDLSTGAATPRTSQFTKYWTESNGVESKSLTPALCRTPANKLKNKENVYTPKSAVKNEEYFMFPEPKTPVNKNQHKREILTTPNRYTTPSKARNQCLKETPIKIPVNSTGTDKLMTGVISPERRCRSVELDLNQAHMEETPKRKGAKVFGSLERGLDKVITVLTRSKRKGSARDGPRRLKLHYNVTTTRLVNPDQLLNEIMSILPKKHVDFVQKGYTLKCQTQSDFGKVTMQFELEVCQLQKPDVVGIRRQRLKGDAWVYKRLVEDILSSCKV
The target in experiment [6] is AMPK alpha1/alpha2 (Homo sapiens) (UniProt P54646+Q13131). The experiment in a line: Inhibition of AMPK alpha 1/2 K1 labeling site in human Huh-7 cells at 1 uM by KiNativ Profiling analysis relative to control. It is filed as cell-based.
Chain of AMPK alpha1/alpha2 (Homo sapiens) (P54646 whole entry, looked up): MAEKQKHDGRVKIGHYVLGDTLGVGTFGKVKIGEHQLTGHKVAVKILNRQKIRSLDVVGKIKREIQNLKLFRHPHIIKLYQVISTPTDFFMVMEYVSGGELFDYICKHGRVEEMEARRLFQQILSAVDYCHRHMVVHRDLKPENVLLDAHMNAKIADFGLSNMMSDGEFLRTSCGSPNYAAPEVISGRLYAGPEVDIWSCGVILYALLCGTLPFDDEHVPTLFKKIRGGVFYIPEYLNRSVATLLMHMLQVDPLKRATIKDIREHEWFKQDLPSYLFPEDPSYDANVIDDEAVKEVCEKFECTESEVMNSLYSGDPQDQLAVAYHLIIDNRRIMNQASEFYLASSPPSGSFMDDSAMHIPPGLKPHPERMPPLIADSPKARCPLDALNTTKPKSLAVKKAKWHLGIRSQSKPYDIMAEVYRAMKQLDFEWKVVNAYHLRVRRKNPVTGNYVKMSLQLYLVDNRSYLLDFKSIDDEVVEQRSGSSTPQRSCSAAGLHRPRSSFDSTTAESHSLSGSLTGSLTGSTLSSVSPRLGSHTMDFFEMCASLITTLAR
Chain of AMPK alpha1/alpha2 (Homo sapiens) (Q13131 whole entry, looked up): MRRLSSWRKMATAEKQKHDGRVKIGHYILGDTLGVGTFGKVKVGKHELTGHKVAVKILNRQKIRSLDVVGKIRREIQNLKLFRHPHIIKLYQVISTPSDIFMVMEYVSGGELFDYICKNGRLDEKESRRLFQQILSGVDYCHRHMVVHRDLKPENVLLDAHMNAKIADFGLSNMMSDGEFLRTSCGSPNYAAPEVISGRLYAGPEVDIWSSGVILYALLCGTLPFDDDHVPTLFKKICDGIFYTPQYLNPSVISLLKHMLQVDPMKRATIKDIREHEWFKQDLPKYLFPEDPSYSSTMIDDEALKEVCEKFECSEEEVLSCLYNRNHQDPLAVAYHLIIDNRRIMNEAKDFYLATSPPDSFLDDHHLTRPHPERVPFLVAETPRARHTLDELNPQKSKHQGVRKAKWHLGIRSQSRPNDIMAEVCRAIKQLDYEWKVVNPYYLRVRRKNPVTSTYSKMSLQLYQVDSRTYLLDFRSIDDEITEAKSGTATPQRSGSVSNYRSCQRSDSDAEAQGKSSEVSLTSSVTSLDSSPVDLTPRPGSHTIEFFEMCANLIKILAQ
The target of experiment [7] is T2, Mitogen-activated protein kinase kinase kinase kinase 2 (Homo sapiens) (UniProt Q12851).
T2 sequence (whole entry): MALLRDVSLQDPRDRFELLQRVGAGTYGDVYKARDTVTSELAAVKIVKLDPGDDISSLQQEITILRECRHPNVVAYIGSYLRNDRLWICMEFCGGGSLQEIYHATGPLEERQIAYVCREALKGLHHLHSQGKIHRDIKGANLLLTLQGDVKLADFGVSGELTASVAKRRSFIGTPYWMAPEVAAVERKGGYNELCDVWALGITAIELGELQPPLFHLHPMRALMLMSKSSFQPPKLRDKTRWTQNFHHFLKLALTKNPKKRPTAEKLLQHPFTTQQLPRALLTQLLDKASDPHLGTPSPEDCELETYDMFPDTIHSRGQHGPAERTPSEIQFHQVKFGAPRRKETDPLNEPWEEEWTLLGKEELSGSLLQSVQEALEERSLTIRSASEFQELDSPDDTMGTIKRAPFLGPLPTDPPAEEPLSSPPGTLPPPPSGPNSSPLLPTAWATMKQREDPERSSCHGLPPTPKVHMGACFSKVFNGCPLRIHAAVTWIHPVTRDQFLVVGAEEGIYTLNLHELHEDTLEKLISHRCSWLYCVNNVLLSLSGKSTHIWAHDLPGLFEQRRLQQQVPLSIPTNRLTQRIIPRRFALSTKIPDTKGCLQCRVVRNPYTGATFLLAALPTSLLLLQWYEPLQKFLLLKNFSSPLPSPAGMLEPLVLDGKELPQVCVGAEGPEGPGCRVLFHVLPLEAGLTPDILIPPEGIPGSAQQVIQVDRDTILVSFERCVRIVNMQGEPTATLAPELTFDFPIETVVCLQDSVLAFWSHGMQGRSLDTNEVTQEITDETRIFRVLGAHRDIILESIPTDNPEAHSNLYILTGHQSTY
The experiment in a line: Inhibition of MAP4K2 Lys1 labeling site in human A-375 cells at 5 uM by KiNativ Profiling analysis relative to control. Format: cell-based.

In experiment [8] the target is Serine/threonine-protein kinase VRK2 (Homo sapiens) (UniProt Q86Y07). The experiment in a line: Inhibition of VRK2 Lys2 labeling site in human Huh-7 cells at 1 uM by KiNativ Profiling analysis relative to control. It is filed as cell-based.
Chain of Serine/threonine-protein kinase VRK2 (Homo sapiens) (Q86Y07 whole entry): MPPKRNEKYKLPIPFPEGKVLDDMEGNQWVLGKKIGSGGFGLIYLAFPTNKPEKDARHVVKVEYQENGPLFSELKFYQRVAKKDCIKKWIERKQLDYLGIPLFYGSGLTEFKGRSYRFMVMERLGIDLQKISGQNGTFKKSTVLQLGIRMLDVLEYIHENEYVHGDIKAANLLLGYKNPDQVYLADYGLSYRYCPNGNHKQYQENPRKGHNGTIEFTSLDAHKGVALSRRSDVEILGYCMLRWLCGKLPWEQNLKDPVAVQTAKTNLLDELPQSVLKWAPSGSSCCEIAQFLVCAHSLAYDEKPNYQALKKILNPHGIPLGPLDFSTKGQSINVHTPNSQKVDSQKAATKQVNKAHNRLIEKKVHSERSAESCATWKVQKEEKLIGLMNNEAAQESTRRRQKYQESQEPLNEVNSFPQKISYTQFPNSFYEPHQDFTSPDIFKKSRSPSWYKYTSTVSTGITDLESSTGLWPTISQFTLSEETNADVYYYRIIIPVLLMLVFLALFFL
Experiment [9] has as its target T3, Serine/threonine-protein kinase Sgk3 (Homo sapiens) (UniProt Q96BR1).
T3 sequence (whole entry): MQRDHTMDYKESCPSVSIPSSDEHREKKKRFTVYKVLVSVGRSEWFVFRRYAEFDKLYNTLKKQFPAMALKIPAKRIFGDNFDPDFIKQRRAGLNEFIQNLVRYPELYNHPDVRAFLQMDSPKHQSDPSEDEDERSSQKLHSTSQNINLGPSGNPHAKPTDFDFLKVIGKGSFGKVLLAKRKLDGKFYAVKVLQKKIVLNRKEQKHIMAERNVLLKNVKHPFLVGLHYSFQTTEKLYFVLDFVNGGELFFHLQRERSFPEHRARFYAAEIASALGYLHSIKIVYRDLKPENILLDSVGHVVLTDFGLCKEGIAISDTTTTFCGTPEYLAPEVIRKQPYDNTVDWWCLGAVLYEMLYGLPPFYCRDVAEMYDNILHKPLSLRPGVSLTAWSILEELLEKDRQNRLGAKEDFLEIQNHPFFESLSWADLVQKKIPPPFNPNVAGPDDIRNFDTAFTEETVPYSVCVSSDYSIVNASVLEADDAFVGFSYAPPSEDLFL
The experiment in a line: Inhibition of SGK3 Lys1 labeling site in human Huh-7 cell lysate at 1 uM by KiNativ Profiling analysis relative to control. Format: subcellular.

The structures appear in SMILES notation. Activity calls are given as the source filed them. The calls are words filed in the database; no cut-off is given here.

The term inhibition denotes the relative decrease from the control value, in per cent.

Chain of Angiopoietin-1 receptor (Homo sapiens) (Q02763 whole entry): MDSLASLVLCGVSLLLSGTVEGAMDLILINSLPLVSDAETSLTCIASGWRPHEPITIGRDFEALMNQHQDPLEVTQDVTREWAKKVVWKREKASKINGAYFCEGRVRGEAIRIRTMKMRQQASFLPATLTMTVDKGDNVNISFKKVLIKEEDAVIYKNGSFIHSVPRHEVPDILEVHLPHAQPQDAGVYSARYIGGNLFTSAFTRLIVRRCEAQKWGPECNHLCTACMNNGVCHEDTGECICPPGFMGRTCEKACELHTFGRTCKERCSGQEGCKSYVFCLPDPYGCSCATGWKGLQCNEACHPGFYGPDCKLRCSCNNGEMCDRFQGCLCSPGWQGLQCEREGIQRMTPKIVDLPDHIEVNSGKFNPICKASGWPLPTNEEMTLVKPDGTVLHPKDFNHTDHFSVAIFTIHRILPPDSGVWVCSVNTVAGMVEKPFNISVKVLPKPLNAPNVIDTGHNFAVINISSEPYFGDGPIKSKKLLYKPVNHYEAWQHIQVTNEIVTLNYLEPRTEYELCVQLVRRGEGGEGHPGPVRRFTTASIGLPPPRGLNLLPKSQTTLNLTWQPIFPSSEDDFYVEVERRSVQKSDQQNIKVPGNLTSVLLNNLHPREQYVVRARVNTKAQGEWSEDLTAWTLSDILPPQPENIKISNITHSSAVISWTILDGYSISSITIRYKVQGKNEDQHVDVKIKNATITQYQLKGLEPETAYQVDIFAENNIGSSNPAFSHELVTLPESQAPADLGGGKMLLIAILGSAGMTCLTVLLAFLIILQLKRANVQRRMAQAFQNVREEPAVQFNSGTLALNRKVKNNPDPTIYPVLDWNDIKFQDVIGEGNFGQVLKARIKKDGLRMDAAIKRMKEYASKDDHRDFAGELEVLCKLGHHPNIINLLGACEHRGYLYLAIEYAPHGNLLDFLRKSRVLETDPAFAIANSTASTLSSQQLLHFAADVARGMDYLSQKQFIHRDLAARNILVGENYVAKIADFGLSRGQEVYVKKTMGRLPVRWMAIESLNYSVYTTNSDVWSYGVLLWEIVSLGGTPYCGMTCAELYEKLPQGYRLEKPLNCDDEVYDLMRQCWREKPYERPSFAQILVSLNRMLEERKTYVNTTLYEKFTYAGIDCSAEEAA
Chain of Glycogen synthase kinase-3 beta (Homo sapiens) (P49841 whole entry, looked up): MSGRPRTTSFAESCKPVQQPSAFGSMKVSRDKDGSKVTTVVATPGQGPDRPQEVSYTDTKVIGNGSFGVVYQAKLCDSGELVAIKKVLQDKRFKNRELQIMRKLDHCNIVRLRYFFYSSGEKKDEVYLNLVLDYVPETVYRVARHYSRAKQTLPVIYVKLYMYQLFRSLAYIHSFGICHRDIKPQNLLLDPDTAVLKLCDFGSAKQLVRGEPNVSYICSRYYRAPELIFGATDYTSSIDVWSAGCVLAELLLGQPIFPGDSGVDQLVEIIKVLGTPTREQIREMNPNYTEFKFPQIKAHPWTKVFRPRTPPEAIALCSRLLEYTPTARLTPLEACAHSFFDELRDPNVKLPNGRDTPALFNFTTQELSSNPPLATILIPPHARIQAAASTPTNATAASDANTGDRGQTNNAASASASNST

As to `CCN1CCN(Cc2ccc(NC(=O)c3ccc(C)c(/C=C/c4cnc5[nH]ccc5c4OC)c3)cc2C(F)(F)F)CC1`, the figures for the residual activity in experiment [1] and in experiment [2] were 74% and 100%, respectively. The compound also yielded an inhibition in experiment [3] of 7.3%.

Regarding `CCN1CCN(Cc2ccc(NC(=O)c3ccc(C)c(Oc4ccnc5[nH]ccc45)c3)cc2C(F)(F)F)CC1`, the residual activity in [4] came to 0%. For the same compound, the inhibition result in experiment [5] was “inactive”. For the same compound, the results for the inhibition in experiment [6] and in [7] were 29.8% and greater than 99.5%, respectively.

For the compound `CNc1cc(Oc2cc(C(=O)Nc3cc(N4CCN(C)CC4)cc(C(F)(F)F)c3)ccc2C)ncn1`, the inhibition in [8] was found to be 40.4%; in experiment [9], 3.5%.
